From PMC10095932 (Molecules, 2023) come the findings set out here.

For one data set, the target named is T1, human NPR-A (Homo sapiens, UniProt P16066).
T1 construct: expressed in transfected cells; host or cells: HEK 293 cells, transient, Lipofectamine 2000
T1 sequence (P16066 33-1061): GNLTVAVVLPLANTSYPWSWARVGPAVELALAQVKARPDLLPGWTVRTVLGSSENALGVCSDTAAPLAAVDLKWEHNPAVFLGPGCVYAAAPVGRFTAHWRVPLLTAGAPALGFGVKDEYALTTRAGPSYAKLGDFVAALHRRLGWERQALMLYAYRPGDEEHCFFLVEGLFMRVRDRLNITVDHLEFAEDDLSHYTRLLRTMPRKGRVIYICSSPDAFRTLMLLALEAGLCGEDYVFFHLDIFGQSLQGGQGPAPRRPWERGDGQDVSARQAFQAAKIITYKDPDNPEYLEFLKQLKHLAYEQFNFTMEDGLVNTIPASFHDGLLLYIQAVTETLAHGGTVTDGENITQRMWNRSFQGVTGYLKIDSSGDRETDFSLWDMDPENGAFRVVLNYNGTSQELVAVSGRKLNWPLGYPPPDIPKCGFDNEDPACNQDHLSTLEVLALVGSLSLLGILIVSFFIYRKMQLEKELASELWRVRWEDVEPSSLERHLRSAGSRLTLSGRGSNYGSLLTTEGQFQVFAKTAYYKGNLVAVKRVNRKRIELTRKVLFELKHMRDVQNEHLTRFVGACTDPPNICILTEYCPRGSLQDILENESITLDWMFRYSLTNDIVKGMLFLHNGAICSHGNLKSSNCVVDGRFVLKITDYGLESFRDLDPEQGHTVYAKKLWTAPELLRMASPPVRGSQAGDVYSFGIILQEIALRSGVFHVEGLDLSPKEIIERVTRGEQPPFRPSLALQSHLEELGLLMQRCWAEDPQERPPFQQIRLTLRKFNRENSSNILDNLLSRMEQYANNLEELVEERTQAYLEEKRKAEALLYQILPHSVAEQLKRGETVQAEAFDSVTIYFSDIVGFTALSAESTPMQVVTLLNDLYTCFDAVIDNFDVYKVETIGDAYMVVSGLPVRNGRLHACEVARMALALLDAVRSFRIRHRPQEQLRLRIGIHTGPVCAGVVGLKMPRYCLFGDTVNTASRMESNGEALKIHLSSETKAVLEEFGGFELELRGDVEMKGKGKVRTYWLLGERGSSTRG
The data set can be described thus: cGMP ALPHAscreen, cGMP production in HEK 293 cells transiently overexpressing hNPR-A. To be noted: HEK 293 cells overexpressing hNPR-A. The format is cell-based. Here is the method: Cells were cultured at 5% CO2 and 37 °C. HEK 293 cells were cultured in high glucose DMEM (Gibco, Carlsbad, CA, USA) supplemented with 10% FBS, and 1% penicillin/streptomycin. HEK 293 cells were seeded in media lacking penicillin/streptomycin 24 to 48 h pre-transfection. PC12 cells were cultured in high glucose DMEM (Gibco) supplemented with 10% FBS and 1% penicillin/streptomycin.
HEK 293 cells were transfected using the lipofectamine 2000 transfection protocol (Invitrogen). Cells (95% confluence) were transfected with 45% pcDNA3.1/hNPR-A, 45% pcDNA3.1, and 10% pEGFP-NI to the optimal DNA concentration specified in the protocol. The co-transfection with pEGFP-NI plasmid allowed the determination of the transfection efficiency. This was assessed by the estimation of the number of GFP-expressing cells using an Olympus IX70 inverted fluorescence microscope. Transfected cells were used for assay purposes within 24 h.
The cGMP ALPHAscreen was performed using the ALPHAscreen Protein A detection kit and the biotinylated cGMP supplement (Perkin Elmer, Waltham, MA, USA) with rabbit anti-cGMP polyclonal antibody (Biovision, Mountain View, CA, USA). Cells were detached from the flask and the resulting pellet was resuspended in stimulation buffer (HBSS supplemented with 0.1% w/v BSA and 1 mM IBMX at 37 °C). Cells were added to a white 384-well Optiplate (Perkin Elmer, Waltham, USA) to 30,000 cells per well for HEK 293 cells and 10,000 cells per well for PC12 cells. Cells were incubated with different concentrations of test peptides (concentration range of 1 × 10^−5 to 1 × 10^−11 M in stimulation buffer) at 37 °C for 30 min. Cells were lysed with lysis buffer (1 M HEPES, 0.3% Tween-20, 1% BSA in H2O, pH 7.4). Then 5 μL acceptor-bead mix was added to each well under subdued lighting conditions, followed by 5 μL of donor-bead mix. Plates were incubated for ~12 h, slowly shaking at room temperature. After incubation, the ALPHAscreen signal was measured using an EnVision plate reader (Perkin Elmer). The standard curve consisted of cGMP in a concentration range of 1 × 10^−6 to 1 × 10^−12 M. All data points were acquired in triplicate and were analyzed using GraphPad Prism 5.0 software (GraphPad Software, Inc., San Diego, CA, USA).

For the next data set, the target named is T2, NEP (Homo sapiens, UniProt P08473).
T2 construct: purchased R&D Systems (Minneapolis, MN, USA)
T2 sequence (P08473 whole entry): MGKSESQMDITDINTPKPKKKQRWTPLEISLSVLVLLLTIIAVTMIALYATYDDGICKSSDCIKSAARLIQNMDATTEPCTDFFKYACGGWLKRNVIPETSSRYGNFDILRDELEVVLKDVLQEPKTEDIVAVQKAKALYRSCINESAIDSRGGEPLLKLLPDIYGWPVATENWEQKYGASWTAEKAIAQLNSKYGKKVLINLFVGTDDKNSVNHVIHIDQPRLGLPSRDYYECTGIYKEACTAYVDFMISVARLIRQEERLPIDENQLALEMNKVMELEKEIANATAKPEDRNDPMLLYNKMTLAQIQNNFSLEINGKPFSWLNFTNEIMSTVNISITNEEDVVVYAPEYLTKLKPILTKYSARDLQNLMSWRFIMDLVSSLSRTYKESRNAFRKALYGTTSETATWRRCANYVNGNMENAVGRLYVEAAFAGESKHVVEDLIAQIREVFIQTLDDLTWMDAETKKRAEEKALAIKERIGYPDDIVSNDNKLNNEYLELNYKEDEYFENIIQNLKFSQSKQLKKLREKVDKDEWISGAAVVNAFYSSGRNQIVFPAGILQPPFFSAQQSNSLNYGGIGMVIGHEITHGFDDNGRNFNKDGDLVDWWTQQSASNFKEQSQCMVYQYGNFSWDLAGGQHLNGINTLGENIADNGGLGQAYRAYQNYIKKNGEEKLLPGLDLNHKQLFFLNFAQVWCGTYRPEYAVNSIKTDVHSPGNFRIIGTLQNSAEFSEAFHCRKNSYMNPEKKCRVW
The data set can be described thus: Stability to neutral endopeptidase 24.11 (NEP). It counts as in vitro ADME. To be noted: 3 h; 100 μL of 500 μM peptide, 500 ng NEP, 100 mM Tris.HCl, 150 mM NaCl, pH 7.4, 37 °C, RP-HPLC peak height. Here is the method:
NEP and plasmin stability: About 100 μL of 500 μM peptide was incubated with 500 ng NEP (activity 400 pmol min^−1 μg^−1) or 10 μg plasmin (0.51 U mg^−1, 0.51 μmol min^−1 mg^−1) in 100 mM Tris.HCl and 150 mM NaCl (pH 7.4) at 37 °C. Then, 50 μL aliquots were removed at designated times, quenched by heating to 100 °C for 4 min, and stored at −20 °C until subjected to RP-HPLC analysis.

SMILES strings stand for the structures. Where a SMILES comes first, the peptide text is derived from it. Bridges are numbered along the chain shown (N, C = ends).

Consider `CC[C@H](C)[C@H](NC(=O)[C@H](CCCCN)NC(=O)[C@H](CO)NC(=O)[C@H](CC(=O)O)NC(=O)[C@@H](N)CO)C(=O)NCC(=O)N[C@@H](CC(N)=O)C(=O)NCC(=O)N[C@H]1CSSC[C@@H](C(=O)N[C@@H](CC(N)=O)C(=O)N[C@@H](CCCNC(=N)N)C(=O)N[C@H](C(=O)N[C@@H](CCSC)C(=O)N[C@@H](CCC(N)=O)C(=O)N[C@@H](CC(N)=O)C(=O)N2CCC[C@H]2C(=O)N2CCC[C@H]2C(=O)N[C@@H](CCCCN)C(=O)N[C@@H](CCCCN)C(=O)N[C@@H](Cc2ccccc2)C(=O)N[C@@H](CO)C(=O)NCC(=O)N[C@@H](CCC(=O)O)C(=O)O)[C@@H](C)CC)NC(=O)CNC(=O)[C@H](CC(C)C)NC(=O)CNC(=O)[C@H](CO)NC(=O)[C@H](C(C)C)NC(=O)[C@H](CO)NC(=O)CNC(=O)[C@H]([C@@H](C)CC)NC(=O)[C@H](CCCNC(=N)N)NC(=O)[C@H](CC(=O)O)NC(=O)[C@H](CC(C)C)NC(=O)[C@@H]2CCCN2C(=O)[C@H](Cc2ccccc2)NC(=O)CNC(=O)[C@H](Cc2ccccc2)NC1=O` [TNPc] (H-SDSKIGNGCFGFPLDRIGSVSGLGCNRIMQNPPKKFSGE-OH; disulfide 9-25), for which the Emax at 10 µM on human NPR-A (HEK293, read-out: cGMP production, % of the maximum response (compared with DNP, hANP, hBNP), at 10 μM) is around 30%. For the same compound, the EC50 at human NPR-A (30 min at 37 °C, cGMP ALPHAscreen, three separate experiments in triplicate, read-out: hNPR-A EC50 (95% CI), potency to stimulate cGMP production) was above 10 µM. Further, the “state after incubation with NEP” value on NEP is on record as “remained intact”.

For orientation: EC50 means the concentration giving half of the maximal effect.
